PubChem BioAssay (NCI)
Values joined by “and” are separate entries in the source; they are usually repeats but may differ in a detail not shown here. Equal entries are not always repeated.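 48-hour exposure; five concentrations; linearly interpolated endpoints. GI50 is the concentration that inhibits growth by half. Definition used: TGI = concentration required for complete inhibition of growth.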

Key:
Test in all cases: NCI anticancer screen, dose series, 48 h
SR leukemia = test system: SR leukemia
MALME-3M melanoma = test system: MALME-3M melanoma
COLO 205 colon = test system: COLO 205 colon
A549 NSCLC = test system: A549 NSCLC
HS 578T breast = test system: HS 578T breast
OVCAR-4 ovarian = test system: OVCAR-4 ovarian
KM12 colon = test system: KM12 colon
SF-539 CNS = test system: SF-539 CNS
SK-MEL-2 melanoma = test system: SK-MEL-2 melanoma
A498 renal = test system: A498 renal

## FC(F)(F)c1nc2nc(Cl)c(Cl)nc2n1CCCN1CCOCC1
SR leukemia
  TGI: 33.9 µM
MALME-3M melanoma
  TGI: > 100 µM
COLO 205 colon
  TGI: > 100 µM
A549 NSCLC
  TGI: > 100 µM
HS 578T breast
  TGI: > 100 µM
OVCAR-4 ovarian
  TGI: > 100 µM
KM12 colon
  TGI: > 100 µM
SF-539 CNS
  TGI: > 100 µM
SK-MEL-2 melanoma
  TGI: > 100 µM
A498 renal
  TGI: > 100 µM

## CC(C)(C)C(=O)c1c(C(F)(F)F)n([O-])c2ccccc2[n+]1=O
SR leukemia
  TGI: 0.209 µM
MALME-3M melanoma
  GI50: 0.973 µM
  TGI: 2.34 µM
COLO 205 colon
  GI50: 0.616 µM
  TGI: 1.73 µM
A549 NSCLC
  GI50: 0.485 µM
  TGI: 1.26 µM
HS 578T breast
  GI50: 0.185 µM
  TGI: 0.728 µM
OVCAR-4 ovarian
  GI50: 0.6 µM
  TGI: 2.43 µM
KM12 colon
  GI50: 0.905 µM
  TGI: 2.4 µM
SF-539 CNS
  GI50: 0.846 µM
  TGI: 2.37 µM
SK-MEL-2 melanoma
  TGI: 3.23 µM
A498 renal
  GI50: 0.565 µM
  TGI: 1.75 µM

## O=S(=O)(Nc1ccccc1Cl)c1ccc(-c2cnc(C3CC3)o2)cc1
SR leukemia
  GI50: 0.0684 µM
  TGI: > 55.7 µM
MALME-3M melanoma
  GI50: 0.472 µM
  TGI: 44.3 µM
COLO 205 colon
  GI50: 0.489 µM
  TGI: 5.58 µM
A549 NSCLC
  GI50: 0.867 µM
  TGI: 99.7 µM
HS 578T breast
  GI50: 0.346 µM
  TGI: > 94.9 µM
OVCAR-4 ovarian
  GI50: 4.21 µM
  TGI: > 100 µM
KM12 colon
  GI50: 0.393 µM
  TGI: 32.4 µM
SF-539 CNS
  GI50: 0.332 µM
  TGI: 2.33 µM
SK-MEL-2 melanoma
  GI50: 0.64 µM
  TGI: > 100 µM
A498 renal
  GI50: 0.0873 µM
  TGI: 0.608 µM

## O=C(CC(c1ccccc1)c1c(O)c2ccccc2oc1=O)c1ccccc1 (stereo unspecified)
SR leukemia
  TGI: > 100 µM
MALME-3M melanoma
  TGI: > 100 µM
COLO 205 colon
  TGI: > 100 µM
A549 NSCLC
  TGI: > 100 µM
HS 578T breast
  TGI: > 100 µM
OVCAR-4 ovarian
  TGI: > 100 µM
KM12 colon
  TGI: > 100 µM
SF-539 CNS
  TGI: > 100 µM
SK-MEL-2 melanoma
  TGI: > 100 µM
A498 renal
  TGI: 98.6 µM

## CCOC(=O)N1CCN(c2nc(Nc3cc(C)[nH]n3)c3ccccc3n2)CC1
SR leukemia
  GI50: 0.446 µM
  TGI: 20.2 µM
MALME-3M melanoma
  GI50: 21.9 µM
  TGI: 62.2 µM
COLO 205 colon
  GI50: 1.83 µM
  TGI: 5.41 µM
A549 NSCLC
  GI50: 7.6 µM
  TGI: 28.8 µM
HS 578T breast
  GI50: 1.16 µM
  TGI: 5.42 µM
OVCAR-4 ovarian
  GI50: 4.04 µM
  TGI: > 100 µM
KM12 colon
  GI50: 0.479 µM
  TGI: 23.1 µM
SF-539 CNS
  GI50: 1.92 µM
  TGI: 9.7 µM
SK-MEL-2 melanoma
  GI50: 0.737 µM
  TGI: 55.5 µM
A498 renal
  GI50: 0.423 µM
  TGI: 2.78 µM

## CCN(Cc1cccc(F)c1)c1ccc(CO)c(Cl)c1
SR leukemia
  GI50: 27.3 µM
  TGI: > 70.3 µM
MALME-3M melanoma
  GI50: 20 µM
  TGI: 50.1 µM
COLO 205 colon
  GI50: 1.57 µM
  TGI: 4.85 µM
A549 NSCLC
  GI50: 2.31 µM
  TGI: 35 µM
HS 578T breast
  GI50: 19.5 µM
  TGI: 74.4 µM
OVCAR-4 ovarian
  GI50: 0.318 µM
  TGI: 15.1 µM
KM12 colon
  GI50: 22.1 µM
  TGI: > 68.7 µM
SF-539 CNS
  GI50: 23.8 µM
  TGI: 63.5 µM
SK-MEL-2 melanoma
  GI50: 4.54 µM
  TGI: 25.1 µM
A498 renal
  GI50: 0.0356 µM
  TGI: 0.169 µM

## Clc1nc(Cl)c2ncn(Cc3cccc(Cn4cnc5c(Cl)nc(Cl)nc54)c3)c2n1
SR leukemia
  GI50: 2.94 µM
  TGI: 8.41 µM
MALME-3M melanoma
  GI50: 3.11 µM
  TGI: 9.84 µM
COLO 205 colon
  GI50: 3.37 µM
  TGI: 11.3 µM
A549 NSCLC
  GI50: 11.3 µM
  TGI: 26.3 µM
HS 578T breast
  GI50: 2.69 µM
  TGI: 7.29 µM
OVCAR-4 ovarian
  GI50: 3.69 µM
  TGI: 13.2 µM
KM12 colon
  GI50: 2.87 µM
  TGI: 8.95 µM
SF-539 CNS
  GI50: 1.39 µM
  TGI: 3.13 µM
SK-MEL-2 melanoma
  GI50: 2.79 µM
  TGI: 7.72 µM
A498 renal
  GI50: 4.59 µM
  TGI: 17.2 µM

## Cc1nc(SCC(=O)Nc2nc(-c3ccc(Cl)cc3)cs2)n(Nc2ccccc2)c1C
SR leukemia
  GI50: 3.81 µM
  TGI: > 100 µM
MALME-3M melanoma
  GI50: 10.8 µM
  TGI: 37.6 µM
COLO 205 colon
  GI50: 4.13 µM
  TGI: 14.5 µM
A549 NSCLC
  GI50: 2.9 µM
  TGI: 11.6 µM
HS 578T breast
  GI50: 3.42 µM
  TGI: 21.6 µM
OVCAR-4 ovarian
  GI50: 4.6 µM
  TGI: 22.1 µM
KM12 colon
  GI50: 2.95 µM
  TGI: 14 µM
SF-539 CNS
  GI50: 1.9 µM
  TGI: 4.27 µM
SK-MEL-2 melanoma
  GI50: 10.1 µM
  TGI: 27.6 µM
A498 renal
  GI50: 2.24 µM
  TGI: 10.5 µM

## C=C(c1ccc2nc(NC(=O)OC)[nH]c2c1)c1cccs1
SR leukemia
  TGI: 1.11 µM
MALME-3M melanoma
  TGI: > 100 µM
COLO 205 colon
  TGI: > 100 µM
A549 NSCLC
  TGI: > 100 µM
HS 578T breast
  TGI: > 100 µM
OVCAR-4 ovarian
  TGI: > 100 µM
KM12 colon
  TGI: > 100 µM
SF-539 CNS
  TGI: 0.523 µM
SK-MEL-2 melanoma
  TGI: > 100 µM
A498 renal
  TGI: 2.71 µM

## C#Cc1cccc(N2C(=O)CCC2=O)c1
SR leukemia
  TGI: 4.74 µM
MALME-3M melanoma
  TGI: 28.2 µM
COLO 205 colon
  TGI: 24.8 µM
A549 NSCLC
  TGI: 42.7 µM
HS 578T breast
  TGI: 85.8 µM
OVCAR-4 ovarian
  TGI: 20.5 µM
KM12 colon
  TGI: 19.5 µM
SF-539 CNS
  TGI: 46.9 µM
SK-MEL-2 melanoma
  TGI: 36.6 µM
A498 renal
  TGI: 29.5 µM

## Cc1cnc(NC(=O)Nc2cc(Br)c(C)cc2OC[C@@H]2CNCCO2)cn1
SR leukemia
  GI50: 0.306 µM and 0.196 µM
  TGI: 1.66 µM and 3.72 µM
MALME-3M melanoma
  GI50: 1.63 µM and 1.94 µM
  TGI: > 10 µM and 6.55 µM
COLO 205 colon
  GI50: 2.58 µM and 2.72 µM
  TGI: 9.03 µM and 8.55 µM
A549 NSCLC
  GI50: 1.71 µM and 1.93 µM
  TGI: > 10 µM and 15.8 µM
HS 578T breast
  GI50: 0.572 µM and 0.771 µM
  TGI: > 10 µM and 8.82 µM
OVCAR-4 ovarian
  GI50: 5.85 µM and 1.05 µM
  TGI: > 10 µM and 15.5 µM
KM12 colon
  GI50: 1.2 µM and 1.19 µM
  TGI: > 10 µM and 11.9 µM
SF-539 CNS
  GI50: 0.457 µM and 0.281 µM
  TGI: 3.87 µM and 0.805 µM
SK-MEL-2 melanoma
  GI50: 0.55 µM and 0.653 µM
  TGI: > 10 µM and 13 µM
A498 renal
  GI50: 0.33 µM and 0.0894 µM

## CN[C@H]1C=C[C@@H]2/C=C(C)/C=C/[C@@H](C)[C@H]([C@H](C)[C@H](O)[C@@H](C)NC(C)=O)OC(=O)/C=C/C=C(C)\C=C\[C@]2(C)C1
SR leukemia
  GI50: < 0.001 µM and 0.0049 µM
  TGI: > 49 µM
MALME-3M melanoma
  GI50: 0.0808 µM and 0.0458 µM
  TGI: 21.7 µM
COLO 205 colon
  GI50: 0.00815 µM
  TGI: 8.64 µM
A549 NSCLC
  GI50: 0.0049 µM
  TGI: > 49 µM
HS 578T breast
  GI50: 0.0597 µM and 0.0123 µM
  TGI: > 49 µM
OVCAR-4 ovarian
  GI50: 7.12 µM
  TGI: > 49 µM
KM12 colon
  GI50: 0.00963 µM
  TGI: > 49 µM
SF-539 CNS
  GI50: < 0.001 µM and 0.0049 µM
  TGI: 12.8 µM
SK-MEL-2 melanoma
  TGI: 27.9 µM
A498 renal
  GI50: 0.0113 µM
  TGI: 2.67 µM

## Cc1nn(-c2nc3ccccc3[nH]2)c(N)c1-c1ccc(Cl)cc1
SR leukemia
  GI50: 3.63 µM
  TGI: > 100 µM
MALME-3M melanoma
  GI50: 4.69 µM
  TGI: > 100 µM
COLO 205 colon
  GI50: 4.17 µM
  TGI: > 100 µM
A549 NSCLC
  GI50: 2.9 µM
  TGI: > 100 µM
HS 578T breast
  GI50: 9.24 µM
  TGI: > 100 µM
OVCAR-4 ovarian
  GI50: 5.1 µM
  TGI: > 100 µM
KM12 colon
  GI50: 4.39 µM
  TGI: > 100 µM
SF-539 CNS
  GI50: 5.89 µM
  TGI: > 100 µM
SK-MEL-2 melanoma
  GI50: 5.88 µM
  TGI: > 100 µM
A498 renal
  GI50: 3.02 µM
  TGI: > 100 µM
